Laboratory results taken from patent US20150240220A1, “NOVEL UDP-GLYCOSYLTRANSFERASE DERIVED FROM GINSENG AND USE THEREOF” (KOREA ADVANCED INSTITUTE OF SCIENCE AND TECHNOLOGY, priority 2012, published 2015).

Tests used:
PgUGT74A1 [1] = experiment: In vitro glycosyltransferase assay with purified recombinant PgUGT74A1; format: biochemical, Panax ginseng; settings: ginsenoside 5 mM, UDP-glucose 50 mM, enzyme 30 μg, pH 7, 35° C., 12 hours
Protocol: (§1) A glycosyltransferase assay was performed in a reaction buffer (10 mM PBS buffer, pH 7) containing the purified PgUGT74A1 or PgUGT94B1 (30 μg), a ginsenoside compound (5 mM) and UDP-glucose (50 mM). For this assay, 10 different types of ginsenosides including PPD (Protopanaxadiol), PPT (Protopanaxatriol), Compound K (C-K), ginsenoside Rg3, Rh2, F2, Rd, Rg2, Rh1 and F1 were used, and the structures of the ginsenosides are shown in FIG. 1.
(§2) The reaction mixture was incubated at 35° C. for 12 hours, and then the products were analyzed by thin-layer chromatography (TLC) or high performance liquid chromatography (HPLC).
(§3) TLC analysis was performed using a mobile phase (acetone:methanol:DDW=65:35:10 vol/vol) and a 60F254 silica gel plate (Merck, Germany). The resolved product on the TLC plate was detected by spraying the plate with 10% (vol/vol) sulfuric acid (H2SO4) and heating it at 110° C. for 5 minutes.
(§4) HPLC analysis was performed using ODS (2) C18 column (Phenomenex, USA). Water and acetonitrile gradient application time; and a component ratio are as follows: at a flow rate of 1 ml per minute for 0 minute, 68% water and 32% acetonitrile; 8 minutes, 35% water and 65% acetonitrile; 12 minutes, 0% water and 100% acetonitrile; 20 minutes, 0% water and 100% acetonitrile; 20.1 minutes, 68% water and 32% acetonitrile; and 28 minutes, 68% water and 32% acetonitrile.
(§5) Ginsenosides were detected by using a UV-detector (Younglin, Korea) at a wavelength of 203 nm.
First, the recombinant PgUGT of Example 1, PgUGT74A1, was incubated with 10 different types of ginsenosides (PPD, C-K, Rh2, F2, Rg3, Rd, Rg2, Rh1, F1 and PPT) in the presence of UDP-glucose, and the products converted by the recombinant PgUGT were analyzed by TLC.

PgUGT94B1 [2] = experiment: In vitro glycosyltransferase assay with purified recombinant PgUGT94B1; format: biochemical, Panax ginseng; settings: ginsenoside 5 mM, UDP-glucose 50 mM, enzyme 30 μg, pH 7, 35° C., 12 hours
Protocol: as §1, §2, §3, §4, §5
First, the recombinant PgUGT of Example 1, PgUGT94B1, was incubated with 10 different types of ginsenosides (PPD, C-K, Rh2, F2, Rg3, Rd, Rg2, Rh1, F1 and PPT) in the presence of UDP-glucose, and then the products converted by the recombinant PgUGT were analyzed by TLC.

PgUGT74A1 and PgUGT94B1 = experiment: In vitro glycosyltransferase assay with both PgUGT74A1 and PgUGT94B1 in a single reaction tube; format: biochemical, Panax ginseng; settings: both enzymes in a single reaction tube, in the presence of UDP-Glc
Protocol: PPD (upper panel) or C-K (lower panel) was incubated with both of PgUGT74A1 and PgUGT94B1 in the presence of UDP-Glc. Then the reaction mixture was analyzed by HPLC. […] Rg3 and Rd converted by the above two enzymes are marked as black triangles;
as §1, §2
HPLC analysis was performed using ODS (2) C18 column (Phenomenex, USA). […]
Ginsenosides were detected by using a UV-detector (Younglin, Korea) at a wavelength of 203 nm. […]

[3] = tested on: PgPPTS (protopanaxatriol synthase); experiment: Quantitative RT-PCR of PgPPTS expression in ginseng leaves sprayed with MeJA; format: in vivo, Panax ginseng; settings: 200 μM MeJA sprayed on leaves of 15-month-old ginseng everyday for 5 days, samples on 6th day; normalized to tubulin
Protocol: (§6) Total RNA was isolated from the leaf or root of 15-month-old ginseng using a spectrum plant total RNA kit (Sigma-Aldrich). 200 μM methyl jasmonate (MeJA) was sprayed onto the leaves of ginseng everyday for a total of 5 days, and samples were collected on the 6th day. The 1 μg of total RNA was used for cDNA synthesis.
(§7) Expression levels of different genes were examined by a quantitative RT-PCR using the primer sets listed in the following Table 2, and the results were normalized to the expression level of tubulin.
(§8) The 15-month old ginseng grown in a growth chamber under LD conditions was collected, and MeJA was sprayed onto its leaves everyday for a total of 5 days. To analyze expression level of the ginsenoside biosynthetic genes, samples were collected on the 6th days. […] However, expression of PgPPTS was not induced by MeJA under the conditions of the present invention.

[4] = tested on: PgDS (dammarenediol-II synthase); experiment: Quantitative RT-PCR of PgDS expression in ginseng leaves sprayed with MeJA; format: in vivo, Panax ginseng; settings: 200 μM MeJA sprayed on leaves of 15-month-old ginseng everyday for 5 days, samples on 6th day; normalized to tubulin
Protocol: as §6, §7, §8

[5] = tested on: PgPPDS (protopanaxadiol synthase); experiment: Quantitative RT-PCR of PgPPDS expression in ginseng leaves sprayed with MeJA; format: in vivo, Panax ginseng; settings: 200 μM MeJA sprayed on leaves of 15-month-old ginseng everyday for 5 days, samples on 6th day; normalized to tubulin
Protocol: as §6, §7, §8

PgUGT74A1 [6] = experiment: Quantitative RT-PCR of PgUGT74A1 expression in ginseng leaves sprayed with MeJA; format: in vivo, Panax ginseng; settings: 200 μM MeJA sprayed on leaves of 15-month-old ginseng everyday for 5 days, samples on 6th day; normalized to tubulin
Protocol: as §6, §7, §8

PgUGT94B1 [7] = experiment: Quantitative RT-PCR of PgUGT94B1 expression in ginseng leaves sprayed with MeJA; format: in vivo, Panax ginseng; settings: 200 μM MeJA sprayed on leaves of 15-month-old ginseng everyday for 5 days, samples on 6th day; normalized to tubulin
Protocol: as §6, §7, §8

ginseng = experiment: Concentrations of 4 major ginsenosides after spraying MeJA onto the leaf of ginseng; format: in vivo, Panax ginseng; settings: MeJA sprayed onto the leaf of ginseng; versus untreated
Protocol: as §6
In this regard, the concentrations of 4 major ginsenosides were measured after spraying MeJA onto the leaf of ginseng. The treatment of MeJA increased the concentrations of two PPD-type ginsenosides, Rd and Rb1, by 1.55 and 1.14 times respectively (FIG. 6c). In addition, the treatment of MeJA increased the concentrations of two PPT-type ginsenosides, Rg1 and Re, by 2.61 and 1.45 times respectively.

SMILES: CC(C)=CCCC(C)(O)[C@H]1CC[C@]2(C)[C@@H]1[C@H](O)C[C@@H]1[C@@]3(C)CC[C@H](O)C(C)(C)[C@@H]3CC[C@]12C (stereo in doubt) [PPD, Protopanaxadiol]
- conversion of the ginsenoside by PgUGT74A1 (HPLC analysis) (PgUGT74A1 [1]): converted PPD and C-K into ginsenoside Rh2 and F2 respectively
- conversion of the ginsenoside by PgUGT74A1 (TLC analysis) (PgUGT74A1 [1]): converted PPD and C-K into ginsenoside Rh2 and ginsenoside F2 respectively
- conversion of the ginsenoside by PgUGT94B1 (HPLC analysis) (PgUGT94B1 [2]): did not convert PPD and C-K into other ginsenosides
- conversion of the ginsenoside by PgUGT74A1 and PgUGT94B1 together (HPLC analysis) (PgUGT74A1 and PgUGT94B1): successfully converted into Rg3

SMILES: CC/C=C\C[C@H]1C(=O)CC[C@@H]1CC(=O)OC [MeJA, Methyl(1R,2R)-3-Oxo-2-(2Z)-2-pentenyl-cyclopentaneacetate]
- expression of PgPPTS after MeJA treatment [3]: not induced
- expression of PgDS after MeJA treatment [4]: enhanced the expression
- expression of PgPPDS after MeJA treatment [5]: enhanced the expression
- expression level of PgUGT74A1 after MeJA treatment (PgUGT74A1 [6]): higher expression level
- expression level of PgUGT94B1 after MeJA treatment (PgUGT94B1 [7]): higher expression level
- increase of the concentration of PPD-type ginsenoside Rb1 by MeJA treatment (ginseng): 1.14 times
- increase of the concentration of PPD-type ginsenoside Rd by MeJA treatment (ginseng): 1.55 times
- increase of the concentration of PPT-type ginsenoside Re by MeJA treatment (ginseng): 1.45 times
- increase of the concentration of PPT-type ginsenoside Rg1 by MeJA treatment (ginseng): 2.61 times

SMILES: CC(C)=CCC[C@](C)(O[C@@H]1O[C@H](CO)[C@@H](O)[C@H](O)[C@H]1O)[C@H]1CC[C@]2(C)[C@@H]1[C@H](O)C[C@@H]1[C@@]3(C)CC[C@H](O)C(C)(C)[C@@H]3CC[C@]12C [C-K, Compound K]
- conversion of the ginsenoside by PgUGT74A1 (HPLC analysis) (PgUGT74A1 [1]): converted PPD and C-K into ginsenoside Rh2 and F2 respectively
- conversion of the ginsenoside by PgUGT74A1 (TLC analysis) (PgUGT74A1 [1]): converted PPD and C-K into ginsenoside Rh2 and ginsenoside F2 respectively
- conversion of the ginsenoside by PgUGT94B1 (HPLC analysis) (PgUGT94B1 [2]): did not convert PPD and C-K into other ginsenosides
- conversion of the ginsenoside by PgUGT74A1 and PgUGT94B1 together (HPLC analysis) (PgUGT74A1 and PgUGT94B1): successfully converted into Rd

SMILES: CC(C)=CCC[C@](C)(O)[C@H]1CC[C@]2(C)[C@@H]1[C@H](O)C[C@@H]1[C@@]3(C)CC[C@H](O[C@@H]4O[C@H](CO)[C@@H](O)[C@H](O)[C@H]4O)C(C)(C)[C@@H]3CC[C@]12C [ginsenoside Rh2]
- conversion of the ginsenoside by PgUGT74A1 (HPLC analysis) (PgUGT74A1 [1]): did not convert ginsenoside Rh2 and F2
- conversion of the ginsenoside by PgUGT94B1 (HPLC analysis) (PgUGT94B1 [2]): converted ginsenoside Rh2 and F2 into ginsenoside Rg3 and Rd respectively
- conversion of the ginsenoside by PgUGT94B1 (TLC analysis) (PgUGT94B1 [2]): converted ginsenoside Rh2 and ginsenoside F2 into ginsenoside Rg3 and ginsenoside Rd respectively

SMILES: CC(C)=CCC[C@](C)(O[C@@H]1O[C@H](CO)[C@@H](O)[C@H](O)[C@H]1O)[C@H]1CC[C@]2(C)[C@@H]1[C@H](O)C[C@@H]1[C@@]3(C)CC[C@H](O[C@@H]4O[C@H](CO)[C@@H](O)[C@H](O)[C@H]4O)C(C)(C)[C@@H]3CC[C@]12C [ginsenoside F2]
- conversion of the ginsenoside by PgUGT74A1 (HPLC analysis) (PgUGT74A1 [1]): did not convert ginsenoside Rh2 and F2
- conversion of the ginsenoside by PgUGT94B1 (HPLC analysis) (PgUGT94B1 [2]): converted ginsenoside Rh2 and F2 into ginsenoside Rg3 and Rd respectively
- conversion of the ginsenoside by PgUGT94B1 (TLC analysis) (PgUGT94B1 [2]): converted ginsenoside Rh2 and ginsenoside F2 into ginsenoside Rg3 and ginsenoside Rd respectively
